Measurements taken from BindingDB's records for doi:10.1016/j.bmc.2016.01.035 (Tohoku Pharmaceutical University, 2016).

Assay: Agonist activity at ERalpha in human MCF7 cells assessed as induction of cell proliferation incubated for 5 days by WST-8 assay

`CC(=O)N1C(C)(C)CC(=C(c2ccc(O)cc2)c2ccc(O)cc2)CC1(C)C` gave an EC50 of 0.22 nM.
